# Measured values reported in patent EP0712936B1, “LOW-MOLECULAR DNA FROM STURGEON MILT, A METHOD OF OBTAINING THE DNA AND A PHARMACEUTICAL PREPARATION BASED ON IT” (NAUCHNO-PROIZVODSTVENNOE PREDPRIYATIE "FARMEK", priority 1993, dated 1994).
# Where two headings read alike, the source gives them in different places.
# How the values were obtained:
# HIV [1] = assay: anti-HIV activity at different modes of administration, quantity of syncytia; type: in vivo; settings: placebo 100
# HIV [2] = type: cell-based; settings: comparison preparation, no ratio
# Method: (§1) The antiviral activity of preparations was assessed by the methods recommended for this purpose by the World Health Organization (20, 21). For this purpose we used the cultures of inoculated cell lines SEM and MT-4. The cells were cultured at a concentration of (0.03-0.05)x10^6 cells per 1 ml of PPM1 1640 with 10-% fetal serum of calves, 300 mg/ml of glutamine, 100 mkg/ml of heptamicine and grown in the form of a suspension. The vital activity of cells was checked by coloring them with a 0.4-% solution of trypan blue. The virus sources were strains HIV/IVS and HIV - 1 HTLV/IIIB.
# (§2) The suspension of cells was placed into 24-hole boards, treated with different doses of the preparation and infected with HIV. The multiplicity of infection was 0.01 TCD50 per cell. Then the cultures were incubated at 37 C in the atmosphere containing 5% CO2 at a moisture content of 98% for 5-7 days before determining the cytopathic effect of the virus on the cell culture.
# A culture of inoculated cells, line CEMSS and MT-4 was used in the experiment. […]
# (§3) Then the cultures were incubated at 37 C in the atmosphere containing 5% of CO at a moisture content of 98% for 5-7 days before determining the cytopathic effect of the virus on the cell culture. The formation of viral antigen was assessed by an immunofermental analysis.
# HIV [3] = type: cell-based; settings: comparison preparation, no ratio; remark: listed apart in the source
# Method: as §1, §2
# The formation of viral antigen was assessed by immuno-fermental analysis.
# as §3
smiles,measurement,setting,value
"Cc1cn([C@H]2C[C@H](N=[N+]=[N-])[C@@H](CO)O2)c(=O)[nH]c1=O [AZT (azidothymidine), 3-azi-3-desoxythymidine]","Qty of syncytia, %",HIV [1]; intracerebral,10%
same,"Qty of syncytia, %",HIV [1]; intranasal,75%
same,"No of syncytia, % of virus control",HIV [2],8%
same,quantity of survived mice / quantity of infected mice,"nonlinear white mice; intraabdominal, 5 mg/kg",6/6
same,quantity of survived mice / quantity of infected mice,"nonlinear white mice; intraabdominal, 10 mg/kg",6/6
same,quantity of survived mice / quantity of infected mice,"nonlinear white mice; intraabdominal, 20 mg/kg",6/6
same,quantity of survived mice / quantity of infected mice,"nonlinear white mice; intraabdominal, 35 mg/kg",6/6
same,quantity of survived mice / quantity of infected mice,"nonlinear white mice; intraabdominal, 50 mg/kg",6/6
same,quantity of survived mice / quantity of infected mice,"nonlinear white mice; intraabdominal, 75 mg/kg",6/6
same,mortality of mice,"nonlinear white mice; intracerebral introduction, doses from 10 to 50 mg/kg",50%
same,quantity of survived mice / quantity of infected mice,"nonlinear white mice; intracerebral, 5 mg/kg",6/6
same,quantity of survived mice / quantity of infected mice,"nonlinear white mice; intracerebral, 10 mg/kg",6/6
same,quantity of survived mice / quantity of infected mice,"nonlinear white mice; intracerebral, 20 mg/kg",6/6
same,quantity of survived mice / quantity of infected mice,"nonlinear white mice; intracerebral, 35 mg/kg",6/6
same,quantity of survived mice / quantity of infected mice,"nonlinear white mice; intracerebral, 50 mg/kg",6/6
same,quantity of survived mice / quantity of infected mice,"nonlinear white mice; intracerebral, 75 mg/kg",6/6
same,quantity of survived mice / quantity of infected mice,"nonlinear white mice; intranasal, 5 mg/kg",6/6
same,quantity of survived mice / quantity of infected mice,"nonlinear white mice; intranasal, 10 mg/kg",6/6
same,quantity of survived mice / quantity of infected mice,"nonlinear white mice; intranasal, 20 mg/kg",6/6
same,quantity of survived mice / quantity of infected mice,"nonlinear white mice; intranasal, 35 mg/kg",6/6
same,quantity of survived mice / quantity of infected mice,"nonlinear white mice; intranasal, 50 mg/kg",6/6
same,quantity of survived mice / quantity of infected mice,"nonlinear white mice; intranasal, 75 mg/kg",6/6
same,quantity of survived mice / quantity of infected mice,"nonlinear white mice; subcutaneous, 5 mg/kg",6/6
same,quantity of survived mice / quantity of infected mice,"nonlinear white mice; subcutaneous, 10 mg/kg",6/6
same,quantity of survived mice / quantity of infected mice,"nonlinear white mice; subcutaneous, 20 mg/kg",6/6
same,quantity of survived mice / quantity of infected mice,"nonlinear white mice; subcutaneous, 35 mg/kg",6/6
same,quantity of survived mice / quantity of infected mice,"nonlinear white mice; subcutaneous, 50 mg/kg",6/6
same,quantity of survived mice / quantity of infected mice,"nonlinear white mice; subcutaneous, 75 mg/kg",6/6
same,Data of immuno-enzyme analysis,HIV [3],0.1 mg/mg
same,"Data of immuno-enzyme analysis, optical density",HIV [3],0.091
